This note sets out measurements from patent US10736934B2, “Proteasome modulation for treatment of corneal disorders” (The Lundquist Institute, priority 2015, dated 2020).

In data set [1] the test system is 26S constitutive proteasome (CPR). In words: Proteasome chymotrypsin-like activity in cultured oral mucosa epithelial cells treated with PS-341. It is filed as cell-based, rabbit. How it is done:
(§1) After two weeks of cell culture and when the cells grew to form a multilayered tissue like, proteasome inhibitor (PS-341, (Bortezomib/Velcade®, Millennium Pharmaceutical, a highly specific proteasome inhibitor) was added in cell culture media for 24 h and for 72 h at 2.5, 5, 10, 20, and 50 nM, to, respectively achieve proteasome inhibition or proteasome activation.
One μg of total protein from sample homogenates was used. The reaction mixture contained 50 mM Tris-HCl pH=8, 1 mM DTT, and 40 μM Suc-Leu-Leu-Val-Tyr-AMC (Sigma Aldrich) substrate for chymotrypsin-like activity or 40 μM of Boc-Leu-Ser-Thr-Arg-AMC for trypsin-like activity or 100 uM of Ac-Gly-Pro-Leu-Asp-AMC (Sigma Aldrich) for Caspase-like activity. 5 mM ATP was added to the reaction mixture to distinguish 26S proteasome activity from 20S proteasome activity. The mixture was then incubated for 30 min at 37° C., and then stopped by adding […] monochloroacetate and 30 mM sodium acetate pH=4.3. Fluorescence was determined by measuring the release of AMC (λ, excitation: 370 nm, λ, emission: 410 nm), using a Perkin Elmer LS 30 spectrofluorometer.

The subject of another data set is Keratin 13 (K13). In words: Western blot of K13 in PS-341-treated oral mucosa epithelial cells. The format is cell-based, rabbit. The note with it: OMECS. On the procedure:
as §1
Background: In western blotting, separated proteins are transferred to a membrane and probed.

The subject of another data set is Keratin 4 (K4). In words: Western blot of K4 in PS-341-treated oral mucosa epithelial cells. It is filed as cell-based, rabbit. The note with it: OMECS. On the procedure: as §1
The test system of data set [2] is poly-ubiquitinated proteins. In words: Western blot of poly-ubiquitinated proteins in PS-341-treated oral mucosa epithelial cells. It is filed as cell-based, rabbit. Particulars: 2.5 nM PS-341, 72 h. How it is done:
as §1

For data set [3], the system named is oral mucosa epithelial cells (OMECS). Nature of the data set: Toxicity of low-dose PS-341 in oral mucosa epithelial cells. The note with it: 2.5 nM PS-341 (very low dose), 72 h. It is filed as cell-based, rabbit. On the procedure:
as §1

For a further data set, the system named is IκB / NFκB. In words: IκB / NFκB activation in PS-341-treated oral mucosa epithelial cells.
[4] abbreviates: high doses 10 and 50 nM, 24 hours.

`CC(C)C[C@H](NC(=O)[C@H](Cc1ccccc1)NC(=O)c1cnccn1)B(O)O` [PS-341, Bortezomib]: the “CPR chymotrypsin-like activity decrease” value in data set [1] (2.5 nM PS-341, 24 h, oral mucosa epithelial cells) was 9%; in data set [1] (5 nM PS-341, 24 h, oral mucosa epithelial cells), −41%; in data set [1] (10 nM PS-341, 24 h, oral mucosa epithelial cells) it was −59%; in data set [1] (20 nM PS-341, 24 h, oral mucosa epithelial cells), −84%; in data set [1] (50 nM PS-341, 24 h, oral mucosa epithelial cells), −86%. In addition, in data set [1] (2.5 nM PS-341, 72 hours, oral mucosa epithelial cells), the “increase in proteasome chymotrypsin-like activity versus untreated cells” value is given as 61%. Besides, the “proteasome activities at 72 hours” value in data set [1] (5 nM PS-341, 72 hours, oral mucosa epithelial cells) is recorded as “increased proteasome activities”; in data set [1] (10 nM PS-341, 72 hours, oral mucosa epithelial cells), “increased proteasome activities”. Also, the Chymotrypsine-like proteasome activity result in data set [1] (high doses 10 and 50 nM, 24 hours, OMECS) is listed as “decreased”. In the data set with Keratin 13 (K13) (2.5 nM PS-341, 72 hours), the K13 levels result is given as “decreased”. In addition, in the data set on Keratin 13 (K13) (setting [4]), the K13 level entry was “modified and significantly accumulated”. Further, the K4 levels entry in the data set on Keratin 4 (K4) (2.5 nM PS-341, 72 hours) was “decreased”. Also, in the data set with Keratin 4 (K4) (setting [4]), the K4 level entry was “modified and significantly accumulated”. The poly-ubiquitinated protein accumulation entry in data set [2] is listed as “no significant poly-ubiquitinated protein accumulation”. Moreover, the toxic effects result in data set [3] is reported as “does not produce toxic effects”. The “levels of expression of Inhibitor Kappa B” value in the data set on IκB / NFκB (2.5 nM PS-341, 72 hours after treatment, OMECS) is “decreased”. The NFκB activation entry with IκB / NFκB (2.5 nM PS-341, OMECS) is “blocked NFκB activation”. The IκB entry in the data set on IκB / NFκB (2.5 nM PS-341, first 24 hours, OMECS) is recorded as “stabilizing IκB”.
